Experimental findings from patent US20240190855A1 (Relay Therapeutics, Inc., priority 2021, published 2024) are described below.

The assay addresses T1, CDK2/Cyclin E complex (Homo sapiens, UniProt P24941).
T1 construct: purchased Eurofins 14-475
The assay is described as follows: CDK2/Cyclin E fluorescence-based microfluidic mobility shift assay (CDK2 Biochemical Caliper Assay). As to conditions: read-out: Biochemical CDK2/CyclinE Caliper IC50. The gist of the method:
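Microfluidic mobility-shift readout after EDTA termination measured phosphorylation of fluorescent FL Peptide 18 (1.5 uM final) in a 20 hr room-temperature reaction. Compounds were tested at 11 concentrations (3-fold).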
On to `CC(=O)Nc1cc([C@H]2CC[C@@H](Oc3nnccc3C(C)C)C2)[nH]n1` (single isomer, unassigned) [Example 427], for which the IC50 is at most 100 nM.

For the compound `CC(=O)Nc1cc([C@@H]2CC[C@H](Oc3nnccc3C(C)C)C2)[nH]n1` (single isomer, unassigned) [Example 428], the IC50 was at most 100 nM. `CC(C)NC(=O)O[C@@H]1CC[C@H](c2cc(NC=O)n[nH]2)C1` (single isomer, unassigned) [Example 440]: the IC50 was 250 to 1000 nM. As for `CC(C)NC(=O)O[C@H]1CC[C@@H](c2cc(NC=O)n[nH]2)C1` (single isomer, unassigned) [Example 441], the IC50 was 250 to 1000 nM. To `Cc1cc(CC(=O)Nc2ncc([C@H]3CC[C@@H](OC(=O)NC(C)C)C3)s2)on1` (single isomer, unassigned) [Example 442] belongs at most 100 nM. For the compound `Cc1cc(CC(=O)Nc2ncc([C@@H]3CC[C@H](OC(=O)NC(C)C)C3)s2)on1` (single isomer, unassigned) [Example 443], the IC50 is at most 100 nM. Consider `COCc1nc2ccnc(Nc3cc([C@H]4CC[C@@H](Oc5nnccc5C(C)C)C4)[nH]n3)c2s1` (single isomer, unassigned) [Example 444], for which the IC50 is at most 100 nM.

Consider `COCc1nc2ccnc(Nc3cc([C@@H]4CC[C@H](Oc5nnccc5C(C)C)C4)[nH]n3)c2s1` (single isomer, unassigned) [Example 445], for which the IC50 was at most 100 nM.

For the compound `COCc1cc(C(=O)Nc2cc([C@@H]3CC[C@@](C)(CC(=O)NC(C)C)C3)[nH]n2)n(C)n1` (single isomer, unassigned) [Example 447], the IC50 fell in the range of 1000 to 100000 nM. As for `COCc1cc(C(=O)Nc2cc([C@H]3CC[C@](C)(CC(=O)NC(C)C)C3)[nH]n2)n(C)n1` (single isomer, unassigned) [Example 448], the IC50 was in the range of 1000 to 100000 nM. For the compound `COCc1cc(C(=O)Nc2cc([C@@H]3CC[C@H](Oc4ccc(C(C)C)nn4)C3)[nH]n2)n(C)n1` (single isomer, unassigned) [Example 449], the IC50 was 1000 to 100000 nM. In the case of `Cc1cc(CC(=O)Nc2cc([C@H]3CC[C@@H](OC(=O)[C@H](N)C(C)C)C3)[nH]n2)on1` (single isomer, unassigned) [Example 450], the IC50 is at most 100 nM. As for `Cc1cc(CC(=O)Nc2cc([C@@H]3CC[C@H](OC(=O)[C@H](N)C(C)C)C3)[nH]n2)on1` (single isomer, unassigned) [Example 451], the figure is 100 to 250 nM; as for `Cc1cc(CC(=O)Nc2cc([C@H]3CC[C@@H](NC(=O)[C@H](O)C(C)C)C3)[nH]n2)on1` (single isomer, unassigned) [Example 452], 1000 to 100000 nM; as for `Cc1cc(CC(=O)Nc2cc([C@@H]3CC[C@H](NC(=O)[C@H](O)C(C)C)C3)[nH]n2)on1` (single isomer, unassigned) [Example 453], 1000 to 100000 nM. Consider `CCOC(=O)c1cc2c(Nc3cc([C@H]4CC[C@@H](OC(=O)NC(C)C)C4)[nH]n3)nc(C)cn2n1` (single isomer, unassigned) [Example 462], for which the IC50 is at most 100 nM. On to `CCOC(=O)c1cc2c(Nc3cc([C@@H]4CC[C@H](OC(=O)NC(C)C)C4)[nH]n3)nc(C)cn2n1` (single isomer, unassigned) [Example 463], for which the IC50 is at most 100 nM. As to `COCc1nc2ccnc(Nc3cc([C@@H]4C[C@H](OC(=O)NC(C)C)CO4)[nH]n3)c2s1` (single isomer, unassigned) [Example 466], the IC50 is at most 100 nM. To `COCc1nc2ccnc(Nc3cc([C@H]4C[C@@H](OC(=O)NC(C)C)CO4)[nH]n3)c2s1` (single isomer, unassigned) [Example 467] belongs 100 to 250 nM. `Cc1cc(CC(=O)Nc2cc([C@H]3CC[C@@H](OC(=O)[C@@H](N)C(C)C)C3)[nH]n2)on1` (single isomer, unassigned) [Example 468]: the IC50 lay within 100 to 250 nM.

Consider `Cc1cc(CC(=O)Nc2cc([C@@H]3CC[C@H](OC(=O)[C@@H](N)C(C)C)C3)[nH]n2)on1` (single isomer, unassigned) [Example 469], for which the IC50 was in the range of 250 to 1000 nM.

On to `COCc1cc(C(=O)Nc2cc([C@H]3CC[C@@H](Oc4nnccc4C4CC4)C3)[nH]n2)n(C)n1` (single isomer, unassigned) [Example 470], for which the IC50 was at most 100 nM. As for `COCc1cc(C(=O)Nc2cc([C@@H]3CC[C@H](Oc4nnccc4C4CC4)C3)[nH]n2)n(C)n1` (single isomer, unassigned) [Example 471], the IC50 is at most 100 nM. To `COCc1cc(C(=O)Nc2cc([C@H]3CC[C@@H](Oc4cccnc4C(C)C)C3)[nH]n2)n(C)n1` (single isomer, unassigned) [Example 472] belongs 100 to 250 nM. As for `COCc1cc(C(=O)Nc2cc([C@@H]3CC[C@H](Oc4cccnc4C(C)C)C3)[nH]n2)n(C)n1` (single isomer, unassigned) [Example 473], the figure is 100 to 250 nM; as for `COCc1cc(C(=O)Nc2cc([C@H]3CC[C@@H](Oc4nnccc4-c4ccccc4)C3)[nH]n2)n(C)n1` (single isomer, unassigned) [Example 474], 100 to 250 nM; as for `COCc1cc(C(=O)Nc2cc([C@@H]3CC[C@H](Oc4nnccc4-c4ccccc4)C3)[nH]n2)n(C)n1` (single isomer, unassigned) [Example 475], at most 100 nM.

Take `COCc1cc(C(=O)Nc2cc([C@H]3CC[C@@H](Oc4nnccc4C(F)(F)F)C3)[nH]n2)n(C)n1` (single isomer, unassigned) [Example 476]: the IC50 was at most 100 nM. To `COCc1cc(C(=O)Nc2cc([C@@H]3CC[C@H](Oc4nnccc4C(F)(F)F)C3)[nH]n2)n(C)n1` (single isomer, unassigned) [Example 477] belongs at most 100 nM. Take `COCc1cc(C(=O)Nc2cc([C@@H]3CC[C@H](Oc4c(C)ccnc4C)C3)[nH]n2)n(C)n1` (single isomer, unassigned) [Example 478]: the IC50 lay within 1000 to 100000 nM.

Take `COCc1cc(C(=O)Nc2cc([C@H]3CC[C@@H](Oc4c(C)ccnc4C)C3)[nH]n2)n(C)n1` (single isomer, unassigned) [Example 479]: the IC50 was 1000 to 100000 nM. To `COCc1cc2c(Nc3cc([C@H]4CC[C@@H](OC(=O)NC(C)C)C4)[nH]n3)nccn2n1` (single isomer, unassigned) [Example 480] belongs at most 100 nM; to `COCc1cc2c(Nc3cc([C@@H]4CC[C@H](OC(=O)NC(C)C)C4)[nH]n3)nccn2n1` (single isomer, unassigned) [Example 481], at most 100 nM. In the case of `Cc1cc(CC(=O)Nc2cc([C@H]3CC[C@@H](NC(=O)[C@@H](O)C(C)C)C3)[nH]n2)on1` (single isomer, unassigned) [Example 482], the IC50 was 1000 to 100000 nM. On to `Cc1cc(CC(=O)Nc2cc([C@@H]3CC[C@H](NC(=O)[C@@H](O)C(C)C)C3)[nH]n2)on1` (single isomer, unassigned) [Example 483], for which the IC50 lay within 250 to 1000 nM. As for `Cc1ncccc1O[C@@H]1CC[C@H](c2cc(Nc3nccn4nccc34)n[nH]2)C1` (single isomer, unassigned) [Example 484], the figure is 250 to 1000 nM; as for `Cc1ncccc1O[C@H]1CC[C@@H](c2cc(Nc3nccn4nccc34)n[nH]2)C1` (single isomer, unassigned) [Example 485], at most 100 nM. To `Cc1ncccc1O[C@@H]1CC[C@H](c2cc(Nc3ncnc4ncccc34)n[nH]2)C1` (single isomer, unassigned) [Example 486] belongs 1000 to 100000 nM. As for `Cc1ncccc1O[C@H]1CC[C@@H](c2cc(Nc3ncnc4ncccc34)n[nH]2)C1` (single isomer, unassigned) [Example 487], the figure is at most 100 nM; as for `COCc1cc(C(=O)Nc2cc([C@H]3CC[C@@H](Oc4cncnc4C)C3)[nH]n2)n(C)n1` (single isomer, unassigned) [Example 490], 1000 to 100000 nM; as for `COCc1cc(C(=O)Nc2cc([C@@H]3CC[C@H](Oc4cncnc4C)C3)[nH]n2)n(C)n1` (single isomer, unassigned) [Example 491], 1000 to 100000 nM. For `COCc1cc(C(=O)Nc2cc([C@H]3CC[C@@H](Oc4cc(C(C)C)cnn4)C3)[nH]n2)n(C)n1` (single isomer, unassigned) [Example 492], the IC50 was at most 100 nM. As for `COCc1cc(C(=O)Nc2cc([C@@H]3CC[C@H](Oc4cc(C(C)C)cnn4)C3)[nH]n2)n(C)n1` (single isomer, unassigned) [Example 493], the figure is 100 to 250 nM; as for `COCc1cc(C(=O)Nc2cc([C@H]3CC[C@@H](Oc4nccnc4C)C3)[nH]n2)n(C)n1` (single isomer, unassigned) [Example 494], 250 to 1000 nM. For the compound `COCc1cc(C(=O)Nc2cc([C@@H]3CC[C@H](Oc4nccnc4C)C3)[nH]n2)n(C)n1` (single isomer, unassigned) [Example 495], the IC50 fell in the range of 250 to 1000 nM. As for `c1cncc(O[C@@H]2CC[C@H](c3cc(Nc4ncnc5ncccc45)n[nH]3)C2)c1` (single isomer, unassigned) [Example 498], the figure is 1000 to 100000 nM.

Turning to `c1cncc(O[C@H]2CC[C@@H](c3cc(Nc4ncnc5ncccc45)n[nH]3)C2)c1` (single isomer, unassigned) [Example 499], the IC50 was in the range of 250 to 1000 nM.

Take `CC(C)NC(=O)O[C@@H]1CC[C@H](c2cc(Nc3nccn4nc(C(F)(F)F)cc34)n[nH]2)C1` (single isomer, unassigned) [Example 500]: the IC50 is at most 100 nM. On to `CC(C)NC(=O)O[C@H]1CC[C@@H](c2cc(Nc3nccn4nc(C(F)(F)F)cc34)n[nH]2)C1` (single isomer, unassigned) [Example 501], for which the IC50 was at most 100 nM.

Turning to `COCc1cc(C(=O)Nc2cc([C@H]3CC[C@@H](Oc4nccnc4C(F)F)C3)[nH]n2)n(C)n1` (single isomer, unassigned) [Example 502], the IC50 was 1000 to 100000 nM. Consider `COCc1cc(C(=O)Nc2cc([C@@H]3CC[C@H](Oc4cccnc4C(F)F)C3)[nH]n2)n(C)n1` (single isomer, unassigned) [Example 503], for which the IC50 was in the range of 1000 to 100000 nM.
